What all share (assay type): functional, cell-based
Test [1] deals with SK-MEL. As to the kind of experiment: Cytotoxicity towards melanoma (SK-Mel) cells in human.
Test [2] relates to RPMI 8402. As to the kind of experiment: Cytotoxicity towards lymphoblastoma (RPMI 8402) cells in human.
The test system of test [3] is PC-3. As to the kind of experiment: Cytotoxicity towards prostatic carcinoma (PC3) cells in human.
The test system of test [4] is RPMI 8402. As to the kind of experiment: Cytotoxicity towards camptothecin resistant CPT-K5 cell line in human.
In test [5] the test system is PC-3. Description: Cytotoxicity towards prostatic carcinoma (PC3) cells in human; Not active.
Test [6] concerns SK-MEL. As to the kind of experiment: Cytotoxicity towards melanoma (SK-Mel) cells in human; Not active.

Bounds are passed on as bounds.

Turning to `COc1ccc(-c2nc3cc(-c4nc5cc(N6CCN(C)CC6)ccc5[nH]4)ccc3[nH]2)cc1`, the half-maximal inhibitory concentration (IC50) in the test on SK-MEL [1] was 1100 nM; with RPMI 8402 [2], below 50 nM; in the test on PC-3 [3], 840 nM; with RPMI 8402 [4], 570 nM.
Consider `COc1ccc(-c2nc3cc(-c4nc5cc(CN(C)C)ccc5[nH]4)ccc3[nH]2)cc1`, for which the 50% inhibitory concentration (IC50) is 10000 nM in the test on SK-MEL [1], 380 nM in the test on RPMI 8402 [2], 52000 nM in the test with PC-3 [3] and 6300 nM with RPMI 8402 [4].
For the compound `CCOc1ccc(-c2nc3cc(-c4nc5cc(N6CCN(C)CC6)ccc5[nH]4)ccc3[nH]2)cc1`, the IC50 in the test with SK-MEL [1] was determined as 1600 nM; with RPMI 8402 [2], 5 nM; in the test on PC-3 [3] it was 710 nM; with RPMI 8402 [4], 500 nM.
As to `COc1ccc(-c2nc3cc(-c4nc5cc(CCCN(C)C)ccc5[nH]4)ccc3[nH]2)cc1`, the 50% inhibitory concentration (IC50) in the test with SK-MEL [1] was determined as 10000 nM; in the test on RPMI 8402 [2] it was 1200 nM; in the test with PC-3 [3], 28000 nM; in the test on RPMI 8402 [4], 7100 nM.
As for `COc1ccc(-c2nc3cc(-c4nc5cc(CCN(C)C)ccc5[nH]4)ccc3[nH]2)cc1`, the 50% inhibitory concentration (IC50) with SK-MEL [1] turned out to be 8500 nM; in the test on RPMI 8402 [2], 610 nM; in the test with PC-3 [3], 43000 nM; in the test with RPMI 8402 [4] it was 6100 nM.
Consider `COc1ccc(-c2nc3cc(-c4nc5cc(N)ccc5[nH]4)ccc3[nH]2)cc1`, for which the IC50 with SK-MEL [1] worked out at 6200 nM; with RPMI 8402 [2], 1700 nM; in the test with PC-3 [3], 19000 nM; with RPMI 8402 [4], 14000 nM.
The like results for `COc1ccc(-c2nc3cc(-c4nc5cc(N(C)C)ccc5[nH]4)ccc3[nH]2)cc1` were, in that order, 26000 nM, 130 nM, 4900 nM and 650 nM.
For the compound `COc1ccc(-c2nc3cc(-c4nc5cc([N+](=O)[O-])ccc5[nH]4)ccc3[nH]2)cc1`, the IC50 entry with PC-3 [5] was “Not Active”; in the test with SK-MEL [6], “Not Active”; in the test on RPMI 8402 [2], 650 nM; in the test with RPMI 8402 [4], 3900 nM.
`COc1ccc(-c2nc3cc(-c4nc5cc(OC6CCN(C)CC6)ccc5[nH]4)ccc3[nH]2)cc1`: the IC50 in the test with SK-MEL [1] was 2000 nM; with RPMI 8402 [2], below 40 nM; with PC-3 [3], 380 nM; in the test on RPMI 8402 [4], 440 nM.

As usually defined, the IC50 is the point on the concentration scale where inhibition reaches its midpoint. Low values mean greater potency, high ones weaker potency.
